Bounds are passed on as bounds.

Results on 77 compounds are retold here after the Kinase Knowledgebase extract (Sharma et al. 2016).

Chain of PIK3CA (human) (P42336 whole entry, looked up): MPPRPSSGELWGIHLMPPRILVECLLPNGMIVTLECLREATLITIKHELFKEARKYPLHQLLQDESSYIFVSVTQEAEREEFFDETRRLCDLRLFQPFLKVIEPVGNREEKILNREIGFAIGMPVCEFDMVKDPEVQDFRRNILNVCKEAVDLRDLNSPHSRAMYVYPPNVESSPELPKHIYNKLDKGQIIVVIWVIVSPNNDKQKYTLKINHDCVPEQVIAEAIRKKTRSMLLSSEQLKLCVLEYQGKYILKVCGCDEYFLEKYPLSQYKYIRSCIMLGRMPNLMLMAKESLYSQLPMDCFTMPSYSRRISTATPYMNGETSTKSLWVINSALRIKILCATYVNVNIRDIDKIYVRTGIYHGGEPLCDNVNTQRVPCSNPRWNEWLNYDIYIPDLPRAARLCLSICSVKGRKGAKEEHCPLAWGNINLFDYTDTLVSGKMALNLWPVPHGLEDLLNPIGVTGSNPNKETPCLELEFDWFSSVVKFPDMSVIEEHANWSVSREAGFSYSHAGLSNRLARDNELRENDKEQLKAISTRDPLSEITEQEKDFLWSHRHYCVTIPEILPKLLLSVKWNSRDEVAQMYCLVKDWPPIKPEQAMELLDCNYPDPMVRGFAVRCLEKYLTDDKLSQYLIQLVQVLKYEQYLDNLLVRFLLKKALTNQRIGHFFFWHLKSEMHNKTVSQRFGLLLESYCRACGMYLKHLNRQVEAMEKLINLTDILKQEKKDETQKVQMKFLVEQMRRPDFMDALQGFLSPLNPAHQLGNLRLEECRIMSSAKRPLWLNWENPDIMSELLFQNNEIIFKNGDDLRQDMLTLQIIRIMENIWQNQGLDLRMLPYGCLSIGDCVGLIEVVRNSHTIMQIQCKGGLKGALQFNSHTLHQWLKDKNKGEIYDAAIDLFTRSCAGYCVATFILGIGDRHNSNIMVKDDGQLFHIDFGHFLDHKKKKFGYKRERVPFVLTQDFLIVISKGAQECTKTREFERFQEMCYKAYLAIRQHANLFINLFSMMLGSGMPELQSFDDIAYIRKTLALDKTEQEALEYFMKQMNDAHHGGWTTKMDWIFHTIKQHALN

This test addresses PIK3CA (human) (UniProt P42336). Nature of the test: Inhibition of PIK3CA Kinase Activity.
Take `CCc1c(C)nc(CN(C)C)nc1N1CCOc2ccc(-c3cnc4[nH]c(C)nc4c3)cc2C1`: the IC50 (commonly the concentration needed to halve the response being measured) was ≤ 10 nM.

`Cc1nc2cc(-c3ccc4c(c3)CN(c3nc(CN(C)C)nc(C)c3Br)CCO4)ccc2[nH]1`: the IC50 lay within 50 to 250 nM.

Compound `CC[C@H]1CCc2c(ncnc2N2CCOc3ccc(-c4cnc5nc([C@@H](C)N)[nH]c5c4)cc3C2)C1` gave a concentration for half-maximal inhibition (IC50) of 50 to 250 nM.

In turn, `CNC(=O)c1ccc(-c2ccc3c(c2)CN(c2ncnc(C)c2Cc2ccc(F)cc2)CCO3)cc1` yielded an IC50 of 10 to 50 nM.

`CCNc1nc2ccc(-c3ccc4c(c3)CN(c3ccnc5ccccc35)CCO4)cc2[nH]1`: the IC50 is ≤ 10 nM.

The compound `COc1ccc2c(N3CCOc4ccc(-c5ccc(OC)c(OC)c5)cc4C3)nc(CN(C)C)nc2c1` showed a 50% inhibitory concentration (IC50) of 10 to 50 nM.

In turn, `CC1(C)CCc2ncnc(N3CCOc4ccc(-c5cnc6c(c5)S(=O)(=O)NC(=O)N6)cc4C3)c2C1` came in with an IC50 of 50 to 250 nM.

In turn, `Nc1ccc(-c2ccc3c(c2)CN(c2ccnc4ccccc24)CCO3)cn1` had an IC50 of 50 to 250 nM.

With `Cc1nc2ncc(-c3ccc4c(c3)CN(c3nc(CN(C)C)nc5c3CC(C)(C)CC5)CCO4)cc2[nH]1`, the IC50 was ≤ 10 nM.

Turning to `COc1ccc2c(N3CCOc4ccc(-c5ccc(N)cc5)cc4C3)nc(C)nc2c1`, the IC50 fell in the range of 250 to 1000 nM.

Compound `COc1c(OCc2ccccc2)ccc2c(N3CCOc4ccc(-c5ccc6nc(C)[nH]c6c5)cc4C3)ncnc12` came in with an IC50 of 10 to 50 nM.

With `COC1Cc2nc(CN(C)C)nc(N3CCOc4ccc(-c5cnc6nc(C)[nH]c6c5)cc4C3)c2CC1(C)C` (configuration not stated), the IC50 is ≤ 10 nM.

Take `CCN(C)S(=O)(=O)c1cc(-c2ccc3c(c2)CN(c2ncnc4c2CC(C)(C)CC4)CCO3)cnc1N`: the IC50 was in the range of 50 to 250 nM.

In turn, `CC1(C)CCc2ncnc(N3CCOc4ccc(-c5cnc(N)c(NS(C)(=O)=O)c5)cc4C3)c2C1` showed an IC50 of 50 to 250 nM.

Compound `C=Cc1nc2c(c(N3CCOc4ccc(-c5cnc6[nH]c(C)nc6c5)cc4C3)n1)CC(C)(C)CC2` came in with an IC50 of 50 to 250 nM.

In turn, `CN1CC[C@H](CNS(=O)(=O)c2cc(-c3ccc4c(c3)CN(c3ncnc5c3CC(C)(C)CC5)CCO4)cnc2N)C1` gave an IC50 of 50 to 250 nM.

`CCNc1nc(C)nc(N2CCOc3ccc(-c4cnc5nc(C)[nH]c5c4)cc3C2)c1C` had an IC50 of 10 to 50 nM.

`CC(C)NS(=O)(=O)c1cc(-c2ccc3c(c2)CN(c2ncnc4c2CC(C)(C)CC4)CCO3)cnc1N`: the IC50 was ≤ 10 nM.

With `CC[C@H](C)NCc1nc2c(c(N3CCOc4ccc(-c5cnc6nc(C)[nH]c6c5)cc4C3)n1)CC(C)(C)CC2`, the IC50 lay in the range of 10 to 50 nM.

On to `Cc1nc2ccc(-c3ccc4c(c3)CN(c3ncnc5ccc(Cl)cc35)CCO4)cc2[nH]1`, for which the 50% inhibitory concentration (IC50) lay in the range of 10 to 50 nM.

Compound `CNS(=O)(=O)c1cc(-c2ccc3c(c2)CN(c2ncnc4c2CC(C)(C)C=C4)CCO3)cnc1N` displayed an IC50 of 10 to 50 nM.

For the compound `CC1(C)CCc2ncnc(N3CCOc4ccc(-c5cnc(N)c(S(=O)(=O)NCCO)c5)cc4C3)c2C1`, the IC50 was ≤ 10 nM.

As for `COC(=O)Nc1nc2ccc(-c3ccc4c(c3)CN(c3nc(CN(C)C)nc5c3CC(C)(C)CC5)CCO4)cc2[nH]1`, the IC50 was ≤ 10 nM.

The compound `COc1ccc2c(N3CCOc4ccc(-c5ccc6[nH]c(=O)[nH]c6c5)cc4C3)nc(C)nc2c1` returned a 50% inhibitory concentration (IC50) of 250 to 1000 nM.

Compound `COc1ccc2c(N3CCOc4ccc(-c5ccc6nc(C)[nH]c6c5)cc4C3)nc(C)nc2c1` had an IC50 of 10 to 50 nM.

As for `COc1ccc(-c2ccc3c(c2)CN(c2nc(CN(C)C)nc(C)c2C(C)C)CCO3)cc1NS(C)(=O)=O`, the concentration for half-maximal inhibition (IC50) lay within 10 to 50 nM.

`Cc1nc2ccc(-c3ccc4c(c3)CN(c3ncnc(C)c3Cc3cc(F)cc(F)c3)CCO4)cc2[nH]1` returned an IC50 of 10 to 50 nM.

With `CC1(C)CCc2ncnc(N3CCOc4ccc(-c5cncc(S(N)(=O)=O)c5)cc4C3)c2C1`, the IC50 lay within 50 to 250 nM.

Regarding `COC(=O)Nc1nc2ccc(-c3ccc4c(c3)CN(c3ncnc5cc(OC)c(OC)cc35)CCO4)cc2[nH]1`, the IC50 lay in the range of 10 to 50 nM.

As to `CCNc1nc2ccc(-c3ccc4c(c3)CN(c3nc(C)nc5cc(OC)c(OC)cc35)CCO4)cc2[nH]1`, the IC50 was in the range of 10 to 50 nM.

As to `COC(=O)Nc1nc2ccc(-c3ccc4c(c3)CN(c3ncnc(C)c3Cc3ccc(F)cc3)CCO4)cc2[nH]1`, the concentration for half-maximal inhibition (IC50) was ≤ 10 nM.

Regarding `CCNc1nc2ccc(-c3ccc4c(c3)CN(c3nc(NC)nc5ccccc35)CCO4)cc2[nH]1`, the half-inhibitory concentration (IC50) is 50 to 250 nM.

Regarding `Cc1ncnc(N2CCOc3ccc(-c4ccc5[nH]nc(N)c5c4)cc3C2)c1Cc1ccc(F)cc1`, the IC50 lay in the range of 50 to 250 nM.

Regarding `Nc1nc2ncc(-c3ccc4c(c3)CN(c3ncnc5ccc(Br)cc35)CCO4)cc2[nH]1`, the IC50 was ≤ 10 nM.

As to `CC[C@H]1CCc2c(ncnc2N2CCOc3ccc(-c4cnc5nc(C)[nH]c5c4)cc3C2)C1`, the IC50 was ≤ 10 nM.

`CC1(C)CCc2ncnc(N3CCOc4ccc(-c5cnc(N6CC[C@H](N)C6)c(S(=O)(=O)N6CC[C@H](N)C6)c5)cc4C3)c2C1` displayed an IC50 of 250 to 1000 nM.

As to `Nc1nc2ncc(-c3ccc4c(c3)CN(c3ncnc5ccc(I)cc35)CCO4)cc2[nH]1`, the IC50 was ≤ 10 nM.

As to `Cc1nc2ccc(-c3ccc4c(c3)CN(c3ncnc5cc(Br)ccc35)CCO4)cc2[nH]1`, the IC50 fell in the range of 50 to 250 nM.

With `Cc1c(NC2CCOCC2)ncnc1N1CCOc2ccc(-c3cnc4nc(C5CC5)[nH]c4c3)cc2C1`, the IC50 lay in the range of 50 to 250 nM.

Compound `CCN(CC)Cc1nc(C)c(C(C)C)c(N2CCOc3ccc(-c4ccc5nc(C)[nH]c5c4)cc3C2)n1` displayed an IC50 of 10 to 50 nM.

Compound `COC1Cc2nc(CN(C)C)nc(N3CCOc4ccc(-c5ccc6scnc6c5)cc4C3)c2CC1(C)C` (configuration not stated) displayed an IC50 of 250 to 1000 nM.

`CC1(C)CCc2ncnc(N3CCOc4ccc(-c5cnc(F)c(NS(C)(=O)=O)c5)cc4C3)c2C1`: the IC50 lay in the range of 50 to 250 nM.

In turn, `CC1(C)C=Cc2ncnc(N3CCOc4ccc(-c5cnc(N)c(S(=O)(=O)N6CC[C@@H](N)C6)c5)cc4C3)c2C1` returned an IC50 of 10 to 50 nM.

Compound `Cc1nc2c(c(N3CCOc4ccc(-c5cnc6nc(C)[nH]c6c5)cc4C3)n1)CC(C)CC2` (configuration not stated) had an IC50 of 10 to 50 nM.

`COCCc1c(C)nc(CN(C)C)nc1N1CCOc2ccc(-c3cnc4sc(N)nc4c3)cc2C1` had an IC50 of 10 to 50 nM.

For `Cc1nc(C)c(C(C)C)c(N2CCOc3ccc(-c4cnc5nc(C)[nH]c5c4)cc3C2)n1`, the IC50 was in the range of 10 to 50 nM.

In turn, `c1ccc2c(N3CCOc4ccc(-c5ccc6nc(C7CC7)[nH]c6c5)cc4C3)ccnc2c1` registered an IC50 of 10 to 50 nM.

In turn, `Cc1nc2ccc(-c3ccc4c(c3)CN(c3ncnc5c(Br)cccc35)CCO4)cc2[nH]1` yielded a concentration for half-maximal inhibition (IC50) of 50 to 250 nM.

`Cc1nc2cc(-c3ccc4c(c3)CN(c3nc(CNCCF)nc(C)c3C(C)C)CCO4)ccc2[nH]1` returned an IC50 of 10 to 50 nM.

`CCCNC(=O)c1ccc(-c2ccc3c(c2)CN(c2ccnc4ccccc24)CCO3)cc1` came in with an IC50 of 250 to 1000 nM.

Consider `Cc1nc(CN(C)C)nc(N2CCOc3ccc(-c4cnc5sc(N)nc5c4)cc3C2)c1CC(C)C`, for which the IC50 lay in the range of 50 to 250 nM.

For the compound `COc1ccc2c(N3CCOc4ccc(-c5ccc6nc[nH]c6c5)cc4C3)nc(C)nc2c1`, the IC50 is ≤ 10 nM.

With `CNC(=O)Nc1ccc(-c2ccc3c(c2)CN(c2nc(C)nc4cc(OC)ccc24)CCO3)cc1`, the IC50 fell in the range of 50 to 250 nM.

Turning to `CN(C)Cc1nc2c(c(N3CCOc4ccc(-c5cnc6sc(N)nc6c5)cc4C3)n1)CC(C)(C)CC2`, the IC50 is ≤ 10 nM.

Take `CC1(C)CCc2ncnc(N3CCOc4ccc(-c5cnc(Cl)c(S(=O)(=O)N6CC[C@H](N)C6)c5)cc4C3)c2C1`: the IC50 was 250 to 1000 nM.

Take `Cc1nc2ccc(-c3ccc4c(c3)CN(c3ncnc(C)c3Cc3cccc(C(F)(F)F)c3)CCO4)cc2[nH]1`: the IC50 fell in the range of 50 to 250 nM.

`Cc1ncnc(N2CCOc3ccc(-c4ccc5sc(N)nc5n4)cc3C2)c1Cc1ccc(F)cc1` returned an IC50 of 10 to 50 nM.

For the compound `Cc1nc(N2CCOc3ccc(-c4ccc(-c5ncc[nH]5)cc4)cc3C2)c2ccccc2n1`, the IC50 was 10 to 50 nM.

`Cc1nc2ccc(-c3ccc4c(c3)CN(c3ncnc(C)c3Cc3ccc(C(F)(F)F)cc3)CCO4)cc2[nH]1` showed an IC50 of 10 to 50 nM.

Consider `CCNc1nc2ccc(-c3ccc4c(c3)CN(c3ccnc5ccc(F)cc35)CCO4)cc2[nH]1`, for which the IC50 fell in the range of 10 to 50 nM.

On to `Cc1nc2ccc(-c3ccc4c(c3)CN(c3ncnc(Nc5ccccc5)c3C)CCO4)cc2[nH]1`, for which the IC50 lay within 50 to 250 nM.

In turn, `CCNc1nc2ccc(-c3ccc4c(c3)CN(c3ccnc5cc(OC)c(OC)cc35)CCO4)cc2[nH]1` displayed an IC50 of 10 to 50 nM.

Compound `CC1(C)CCc2ncnc(N3CCOc4ccc(-c5cnc(N)c(S(=O)(=O)N[C@@H]6CCNC6)c5)cc4C3)c2C1` registered an IC50 of 10 to 50 nM.

Take `Cc1nc2ncc(-c3ccc4c(c3)CN(c3ncnc5c3CC(F)(F)CC5)CCO4)cc2[nH]1`: the 50% inhibitory concentration (IC50) lay in the range of 250 to 1000 nM.

In the case of `Cc1nc(N)nc(N2CCOc3ccc(-c4ccc5[nH]cnc5c4)cc3C2)c1Cc1ccc(F)cc1`, the IC50 is ≤ 10 nM.

With `Cc1nc2c(c(N3CCOc4ccc(-c5cnc(N)c(S(=O)(=O)NCC6CCN(C)CC6)c5)cc4C3)n1)CC(C)(C)CC2`, the IC50 lay within 50 to 250 nM.

On to `COC(=O)Nc1nc2ccc(-c3ccc4c(c3)CN(c3ncnc5[nH]ccc35)CCO4)cc2[nH]1`, for which the IC50 was 250 to 1000 nM.

Regarding `COCCOCc1nc2c(c(N3CCOc4ccc(-c5cnc6nc(C)[nH]c6c5)cc4C3)n1)CC(C)(C)CC2`, the IC50 lay in the range of 10 to 50 nM.

Regarding `Cc1nc2ncc(-c3ccc4c(c3)CN(c3ncnc5c3C[C@H](C)[C@@H](C)C5)CCO4)cc2[nH]1`, the concentration for half-maximal inhibition (IC50) lay within 50 to 250 nM.

Take `COCCc1c(C)nc(CN(C)C)nc1N1CCOc2ccc(-c3ccc4nc(C)[nH]c4c3)cc2C1`: the IC50 is ≤ 10 nM.

With `COc1ccc2c(N3CCOc4ccc(-c5cnc6sc(N)nc6c5)cc4C3)nc(CN(C)C)nc2c1`, the IC50 is ≤ 10 nM.

Regarding `Cc1nc2ccc(-c3ccc4c(c3)CN(c3ncnc5c3CCCC5)CCO4)cc2[nH]1`, the IC50 lay within 50 to 250 nM.

`Cc1nc2cc(-c3ccc4c(c3)CN(c3nc([C@H]5CCCN5)nc5c3CC(C)(C)CC5)CCO4)ccc2[nH]1`: the IC50 fell in the range of 10 to 50 nM.

Take `Cc1nc2ccc(-c3ccc4c(c3)CN(c3nc(CNC5CC5)nc5c3CC(C)(C)CC5)CCO4)cc2[nH]1`: the IC50 lay within 10 to 50 nM.

Consider `CCNc1nc2ncc(-c3ccc4c(c3)CN(c3ncnc(C)c3Cc3ccc(F)cc3)CCO4)cc2[nH]1`, for which the IC50 is ≤ 10 nM.

`CC1(C)CCc2ncnc(N3CCOc4ccc(-c5cnc(N)c(S(=O)(=O)NC6CCNCC6)c5)cc4C3)c2C1` had a 50% inhibitory concentration (IC50) of 50 to 250 nM.

With `Cc1nc(CN(C)C)nc(N2CCOc3ccc(-c4ccc5[nH]c(C(F)F)nc5c4)cc3C2)c1Cc1ccc(F)cc1`, the IC50 was ≤ 10 nM.
